Assay results: patent US8268635B2, “Methods of identifying agents that selectively activate p38 and/or NKkB signaling” (priority 2006, dated 2012)
Where no end group is shown, it is not given here.

Columns and labels:
ERK1/ERK2 = ERK1/ERK2 activation in neutrophils in suspension; format: cell-based, human; details: TNF, TNF70-80 15 min; PMA 100 nM 5 min
Experimental: (§1) The cells were lysed and the lysate assessed by western blot analysis for the level of dual-phosphorylated ERK1/ERK2 (top panel) and ERK2 protein (bottom panel). […] The level of myelin basic protein phosphorylation was quantitated by an Instant Imager.
Neutrophils were prepared from peripheral blood of healthy donors by a rapid single-step technique (Kumaratilake, L. M., Rathjen, D. A., Mack, P., Widmer, F., Prasertsiriroj, V., and Ferrante, A. (1995) J. Clin. Invest. 95: 2315-2323) using Hypaque-Ficoll and according to the institution's guidelines on human ethics. […]
KHS (hereon referred to as “GCKR”) activity was assayed as described previously using myelin basic protein as a substrate (Shi, C. S., Leonardi, A., Kyriakis, J., Siebenlist, U., and Kerhl, J. H. (1999) J. Immunol. 163: 3279-3285). ASK-1 activation was determined in immunoprecipitates of ASK-1 by autophosphorylation (Kyriakis, J. M., and Auruch, J. (2001) Physiol. Rev. 81: 807-869). p38 and ERK activities were determined as described using myelin basic protein as a substrate (Hii, C. S., Huang, Z. H., Bilney, A., Costabile, M., Murray, A. W., Rathjen, D. A., Der, C. J., and Ferrante, A. (1998) J. Biol. Chem. 273: 19277-19282). […]

neutrophils = test: Neutrophil superoxide production, lucigenin chemiluminescence assay; format: cell-based, human
Experimental: Neutrophils were pre-treated with varying concentrations of SB203580 for 30 min and then exposed to 10 μM TNF70-80. The lucigenin enhanced chemiluminescence produced by the cells was measured in a luminometer. The peak initial rate of chemiluminescence produced is presented as the mean±sem of six experiments. The response in the presence of the inhibitor is expressed as a % of the control response.
Neutrophil superoxide production was measured as the chemiluminescence generated by the reduction of lucigenin, essentially as described previously (Kumaratilake, L. M., Rathjen, D. A., Mack, P., Widmer, F., Prasertsiriroj, V., and Ferrante, A. (1995) J. Clin. Invest. 95: 2315-2323). Briefly, to 1×10^6 neutrophils in 400 μl of HBSS was added 100 μl of stimulus and 500 μl of 250 μg/ml of lucigenin. The chemiluminescence was measured in a luminometer (Berthold Technologies, Bad Wildbad, Germany) over a 20 min period and the data imported into Microsoft Excel (Redmond, Wash.).
The cells were placed in a water-jacketed luminometer chamber (37° C.) (Autolumat Plus Model LB 953, Berthold Technologies, Bundoora, Australia) and the resulting light output recorded in millivolts (mV) at 10 second intervals. The data was analysed with Multiuser software (Berthold Tubemaster, Bundoora, Australia). The results are expressed as peak superoxide produced.
Various concentrations of TNFR1 fragment or diluent were added to neutrophils (106 in 100 μl HBSS) and incubated at 37° C. for 30 min 5% CO2 in air. After incubation 500 μl of lucigenin (250 μM, final), 100 μl of TNF70-80 (100 μg) were added and the final volume was adjusted to 1 ml.
Superoxide production by human neutrophils was measured by the reduction of the fluorescent lucigenin, (9,9′-bis(N-methyl-acridinium nitrate) (Sigma Chemical Company). This provides a direct and specific measure of agonist-induced superoxide production. Lucigenin-dependant chemiluminescence was measured as described previously Gyllenhannar H. (1987) J. Immunol. Methods 97:209-213. Briefly, 50 μl of 100 mg/ml of peptide or diluent and 250 ml of lucigenin was added to neutrophils (5×10^5 in 50 μl HBSS). The cells were placed in a water-jacketed luminometer chamber (37° C.) (Autolumat Plus Model LB 953, Berthold Technologies, Bundoora, Australia) and the resulting light output recorded in millivolts (mV) at 10 second intervals. The data was analysed with Multi-user software (Berthold Tubemaster, Bundoora, Australia).
Data are presented as mean±SEM of 3 experiments.

JNK = JNK phosphorylation in HL60 cells (western blot); format: cell-based; details: 15 min; TNF 100 U/ml, anisomycin 2.5 μg/ml
p38 [1] = test: p38 kinase activity in human neutrophils; format: cell-based
Experimental: as §1
Neutrophils were prepared from peripheral blood of healthy donors by a rapid single-step technique (Kumaratilake, L. M., Rathjen, D. A., Mack, P., Widmer, F., Prasertsiriroj, V., and Ferrante, A. (1995) J. Clin. Invest. 95: 2315-2323) using Hypaque-Ficoll and according to the institution's guidelines on human ethics. […] These were either used as cells in suspension or as adhered neutrophils by adding the cells to plasma coated plates as previously described (Powell, W., Gravel, S., Halwani, F., Hii, C. S., Huang, Z. H., Tan, A. M., and Ferrante, A. (1997) J. Immunol. 159: 2952-2959).
(§2) KHS (hereon referred to as “GCKR”) activity was assayed as described previously using myelin basic protein as a substrate (Shi, C. S., Leonardi, A., Kyriakis, J., Siebenlist, U., and Kerhl, J. H. (1999) J. Immunol. 163: 3279-3285). ASK-1 activation was determined in immunoprecipitates of ASK-1 by autophosphorylation (Kyriakis, J. M., and Auruch, J. (2001) Physiol. Rev. 81: 807-869). p38 and ERK activities were determined as described using myelin basic protein as a substrate (Hii, C. S., Huang, Z. H., Bilney, A., Costabile, M., Murray, A. W., Rathjen, D. A., Der, C. J., and Ferrante, A. (1998) J. Biol. Chem. 273: 19277-19282). […] A solid phase assay using glutathione-S-transferase (GST)-conjugated-jun (1-79) was employed to assay JNK activity (Hii, C. S., Huang, Z. H., Bilney, A., Costabile, M., Murray, A. W., Rathjen, D. A., Der, C. J., and Ferrante, A. (1998) J. Biol. Chem. 273: 19277-19282). Phosphorylated ASK-1, myelin basic protein and GST-jun (1-79) were fractionated on 8, 16 and 12% SDS polyacrylamide gels, respectively, and the bands were detected and radioactivity determined using an Instant Imager (Packard Instruments, Canberra, Australia).
(§3) The level of myelin basic protein phosphorylation was quantitated by an Instant Imager.

p38 [2] = test: p38 activity in HUVEC (immunoprecipitation, myelin basic protein substrate); format: cell-based, human; details: 5 min; TNF 1,000 U/ml, peptides 10 μM
Experimental: as §3, §2

p38 [3] = test: p38 activation in 70Z/3 cells transfected with hTNFR1 constructs; format: cell-based, mouse; details: 5 min; TNF 1000 U/ml, peptides 10 μM
Experimental: The cells were then lysed, protein contents quantified and subjected to p38 kinase assay by Western blot. The results are presented as the mean+−sem of 3 experiments.
The cells were maintained in RPMI-1640 medium with 4.5 g/L glucose, 2 mM L-glutamine, […] 2-mercaptoethanol and 10% FCS in an atmosphere of 95% air and 5% CO2. Cells were plated onto 10 cm plates at 4×10^7 cells in 15 ml culture medium. Before performing transient transfection, plasmid DNA (hTNFR1), kindly provided by Dr M. Kronke, Institute of Medical Microbiology and Hygiene, Medical Center University of Cologne, Koln, Germany (Adam, D., Wiegmann, K., Adam-Klages, S., Ruff A., and Kronke, M. (1996) J. Biol. Chem. 271: 14617-22), (20 μg in 1 ml of RPMI1640) was mixed with LipofectAMINE 2000 (Invitrogen) (60 μl in 1 ml of RPMI) and the mixture were left at room temperature for 20 min. The mixture was directly added to the cells and incubated for 24 h. The cells were washed twice with HBSS before use.

Compound: CCCCCCCCCCCCCC(=O)O[C@@H]1[C@@H](C)[C@@]2(O)[C@@H](C=C(CO)C[C@]3(O)C(=O)C(C)=C[C@@H]23)[C@@H]2C(C)(C)[C@]12OC(C)=O [PMA, reference compound]
- activity/dual phosphorylation of ERK in neutrophils in suspension (ERK1/ERK2): increased the dual phosphorylation of ERK1/ERK2

Compound: C[S+]([O-])c1ccc(-c2nc(-c3ccncc3)c(-c3ccc(F)cc3)[nH]2)cc1 (stereo not drawn) [SB203580, reference compound]
- effect on TNF70-80 stimulated neutrophil chemiluminescence response (neutrophils; pre-incubated with inhibitor 30 min, then 10 μM TNF70-80): significantly reduced

Compound: COc1ccc(C[C@H]2NC[C@H](O)[C@H]2OC(C)=O)cc1 [anisomycin, reference compound]
- JNK phosphorylation in HL60 cells (JNK): increased JNK phosphorylation

Compound: EDSGTT [Peptide M4-3]
- effect on TNF (mononuclear leukocyte fluid)-induced p38 activation in human neutrophils (p38 [1]; peptide pre-incubated with TNF medium (≈0.12 ng/ml TNF) 20 min, neutrophils 30 min): inhibition of TNF (mononuclear leukocyte fluid)-induced p38 activation

Compound: H-Gly-Gly-Asp-Pro-Gly-Ile-Val-Thr-His-Ser-OH (H-GGDPGIVTHS-OH) [control peptide 205, control peptide, reference compound]
- activity of p38 in HUVEC (p38 [2]): failed to stimulate p38
- activity of p38 in neutrophils in suspension (p38 [1]; 5 min, TNF 100 or 1000 U/ml, TNF70-80 10-50 μM): did not activate p38
- p38 activation in 70Z/3 cells transfected with wild type hTNFR1 (p38 [3]): failed to activate p38

Compound: H-Gly-Thr-Thr-OH (listed as Homo sapiens) [Peptide M4-2]
- effect on TNF-induced superoxide generation of neutrophils (neutrophils; peptide mixed with TNF at 37° C. for 20 min, then added to neutrophils): Inhibits TNF-Induced Superoxide Generation

Compound: His6-Leu-Lys-Pro-Gly-Thr-Thr-OH (HHHHHHLKPGTT-OH; listed as Homo sapiens) [Peptide M4]
- effect on TNF70-80-induced superoxide production in neutrophils (neutrophils; TNFR1 fragment pre-incubated with neutrophils 30 min, then TNF70-80 (100 μg)): can block the biological activity of the TNF70-80
